Measurements: patent US9789116B2, “Compositions and methods of modulating short-chain dehydrogenase activity” (CASE WESTERN RESERVE UNIVERSITY, priority 2013, dated 2017)

Key:
[1] = test system: 15-PGDH-luciferase fusion reporter in V9m, LS174T and V503 cells; test: 15-PGDH-luciferase fusion gene reporter induction in colon cancer cell lines; format: cell-based; conditions: for luciferase activity of 15-PGDH luciferase fusion cells: V9m, LS174T, V503, various concentrations
15-PGDH mRNA = 15-PGDH mRNA levels in colon cancer cell lines by real-time PCR; format: cell-based; conditions: treated colon cancer cell lines, real-time PCR
Excerpt: In these studies parental cell lines (not containing the 15-PGDH-luciferase reporter) are employed.

recombinant 15-PGDH [2] = target: T1, recombinant 15-PGDH (Homo sapiens (Human), UniProt P15428); test: Melting temperature shift of recombinant 15-PGDH (SYPRO Orange); format: binding
T1 sequence (P15428 whole entry): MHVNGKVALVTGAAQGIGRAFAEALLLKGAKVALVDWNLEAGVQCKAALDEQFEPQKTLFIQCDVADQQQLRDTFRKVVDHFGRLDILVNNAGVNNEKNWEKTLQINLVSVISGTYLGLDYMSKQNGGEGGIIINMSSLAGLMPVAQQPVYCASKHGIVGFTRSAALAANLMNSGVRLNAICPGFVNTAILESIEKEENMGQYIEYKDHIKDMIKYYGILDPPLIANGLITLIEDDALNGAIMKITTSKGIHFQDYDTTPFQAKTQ

A549 cells [3] = test: PGE2 levels in medium of IL1-beta stimulated A549 cells; format: cell-based; conditions: for PGE2 induction compared with SW033291: 4 nM to 2500 nM
[4] = test system: wild-type mouse bone marrow; test: Hematopoietic colonies from bone marrow treated ex vivo; format: cell-based; conditions: 1 uM, ex vivo on ice 2 hours; compared with SW033291
Excerpt: Treated marrow is again then plated into methylcellulose for counting of hematopoietic colonies.

recombinant 15-PGDH [5] = target: T1, recombinant 15-PGDH; test: Inhibition of enzymatic activity of recombinant 15-PGDH in vitro (NADH generation); format: biochemical
Hepatocyte stability = format: in vitro ADME; conditions: hepatocytes in culture; read-out: Hepatocyte stability T½
Experimental: (§1) Time to inhibition refers to the time needed to inhibit the generation of NADH by 15-PGDH from the moment with drug is added into the reaction mix. Delta Tm refers to the shift in melting temperature of recombinant 15-PGDH in the presence of drug (with cofactor NADH also present). Concentration of Full Cell Line Reporter Induction refers to the concentration of drug that needs to be added to reporter cell line to achieve maximal induction of the 15-PGDH-luciferase gene fusion reporter cassette, as measured by luciferase assays. Hepatocyte stability refers to the half-life of compound in the presence of hepatocytes in culture. Toxicity refers to the concentration of compound needed to decrease cell numbers in a cell culture assay.

cell culture = test: Toxicity in a cell culture assay (decrease of cell numbers); format: cell-based; conditions: concentration needed to decrease cell numbers in a cell culture assay
Experimental: as §1

A549 cells [6] = test: Cellular toxicity on A549 cells by CellTiter-Glo; format: cell-based; conditions: 24 hours, concentrations of up to 10 μM
Experimental: FIGS. 38(A-C) show assays of cellular toxicity on A549 cells at 24 hours of 15-PGDH inhibitors as assayed by CellTiter-Glo measurement.

lethally irradiated mice = test: Homing of CFSE dye labeled bone marrow cells in lethally irradiated mice; format: in vivo, mouse
Experimental: Drugs are administered following radiation, following the transplant, and again at 8 hours after the transplant.

[7] = test system: mouse tissues (colon, bone marrow, liver, lung); test: PGE2 in mouse tissues after IP injection; format: in vivo
Experimental: Shown is measurement by Elisa of PGE2 (ng PGE2/mg of tissue protein) from 4 mouse tissues: lung, liver, colon and bone marrow. […] Tissues were harvested for PGE2 assay at either 2 hour (2 h) or 3 hour (3 h) time points following drug injection.

[8] = Chemical stability in aqueous solutions; format: physicochemical; conditions: over broad pH range
Solubility in water = format: physicochemical; conditions: pH=3
[9] = Stability with liver extracts; format: in vitro ADME; conditions: incubated with mouse, rat and human liver extracts
mice = test: Immediate toxicity in mice; format: in vivo; conditions: over 24 hours, IP 50 mg/kg body weight

Molecule: COc1ccc(OC)c(N(CC(=O)Nc2cccnc2)S(=O)(=O)c2ccccc2)c1 [SW054384]
- luciferase activity of 15-PGDH luciferase fusion cells [1]: increase luciferase activity
- 15-PGDH mRNA levels (15-PGDH mRNA): do not in general alter 15-PGDH mRNA levels
- direct binding to 15-PGDH by melting temperature shift (recombinant 15-PGDH [2]; 10 μM and 100 μM cofactor (NAD, NADH)): cannot be demonstrated to bind 15-PGDH
- PGE2 level in medium (A549 cells [3]; compound added 24 hours before IL1-beta, maintained next 26 hours): lower level of PGE2 produced

Molecule: CCCCC(C)(C)[C@H](O)/C=C/[C@H]1[C@H](O)CC(=O)[C@@H]1C/C=C\CCCC(=O)O [dmPGE2, 16,16-dimethyl PGE2]
- increase in number of bone marrow derived colonies [4]: slightly greater increase

Molecule: O=C(c1ccc2nc(-c3ccccc3)c(-c3ccccc3)nc2c1)N1CCCCC1 [SW145753]
- luciferase activity of 15-PGDH luciferase fusion cells [1]: increase luciferase activity
- 15-PGDH mRNA levels (15-PGDH mRNA): do not in general alter 15-PGDH mRNA levels
- 15-PGDH activity in cells as reflected in PGE2 levels in medium (A549 cells [3]; IL1-beta 23 hours, compound added for the last 5 hours): clear inhibition of 15-PGDH activity in the cells

Molecule: CCCC[S+]([O-])c1sc2nc(-c3nccs3)cc(-c3nccn3C)c2c1N (centres unmarked) [SW209125, 2-(butylsulfinyl)-4-(1-methyl-1H-imidazol-2-yl)-6-(thiazol-2-yl)thieno[2,3-b]pyridin-3-amine]
- PGE2 induction compared with SW033291 (A549 cells [3]): increased activity relative to SW033291

Molecule: CC(=O)OCCCCS(=O)(=O)c1sc2nc(-c3cccs3)cc(-c3ccccc3)c2c1N [SW209128, 4-((3-amino-4-phenyl-6-(thiophen-2-yl)thieno[2,3-b]pyridin-2-yl)sulfonyl)butyl acetate]
- IC50 (recombinant 15-PGDH [5]; read-out: Enzyme Inhibitor IC50 (nM) at 5 nM 15-PGDH, 5 nM recombinant human 15-PGDH): 4910 nM

Molecule: CCCC[S+]([O-])c1sc2nc(-c3cccs3)ccc2c1N (centres unmarked) [SW206980]
- half-life (Hepatocyte stability): 1.33 h
- Toxicity (cell culture): >7.5 µM
- effect on CellTitre-Glo levels (A549 cells [6]): No effect

Molecule: COc1ccc2c(c1)c(CC(=O)O)c(C)n2C(=O)c1ccc(Cl)cc1 [indomethacin, reference compound]
- effect of SW033291 on homing in presence of COX inhibitor (lethally irradiated mice; SW033291 10 mg/kg IP plus Indomethacin): near completely blocked

Molecule: CCCC[S+]([O-])c1sc2nc(-c3nccs3)cc(-c3nccs3)c2c1N (centres unmarked) [SW209124, 2-(butylsulfinyl)-4,6-di(thiazol-2-yl)thieno[2,3-b]pyridin-3-amine]
- PGE2 induction compared with SW033291 (A549 cells [3]): increased activity relative to SW033291

Molecule: CCCC[S+]([O-])c1sc2nc(-c3nccs3)ccc2c1N (centres unmarked) [SW206992]
- Time to inhibition (10 nM) (recombinant 15-PGDH [5]; time needed to inhibit generation of NADH by 15-PGDH after drug is added): ~2 min
- exposure needed for maximal reporter induction ([1]; 24 hours, three cell line backgrounds): ≥ 1000 nM
- Concentration for Full Cell Line Reporter Induction ([1]; maximal induction of 15-PGDH-luciferase reporter): >1 µM
- melting temperature (recombinant 15-PGDH [2]; 10 μM protein, 20 uM compound, 100 μM NAD(+), control 49): 59 degrees
- Toxicity (cell culture): >7.5 µM
- effect on CellTitre-Glo levels (A549 cells [6]): No effect

Molecule: CCCC[S+]([O-])c1sc2nc(-c3nccs3)cc(-c3cnc(C)n3C)c2c1N (centres unmarked) [formula (XIII)]
- concentration inhibiting recombinant 15-PGDH (recombinant 15-PGDH [5]; enzyme concentration approximately 6 nM): 3 nM
- PGE2 levels in colon, lung, liver and bone marrow ([7]; IP dose of 10 mg/kg body weight): elevates PGE2 levels
- homing of hematopoietic stem cells following bone marrow transplantation (lethally irradiated mice; 10 mg/kg body weight): increases homing
- chemical stability in aqueous solutions [8]: chemically stable
- solubility (Solubility in water): 1000 µg/mL
- chemical stability with liver extracts [9]: chemically stable
- immediate toxicity (mice): no immediate toxicity

Molecule: (+) SW209415
- time of peak PGE2 ([7]; IP 0.5, 1.5 or 5 mg/kg): 3 h
- induction of PGE2 in lung, liver, colon and bone marrow ([7]; IP 0.5, 1.5 or 5 mg/kg, 2 h and 3 h): induction of PGE2 in all 4 tissues tested

Molecule: CCCC[S@](C)(O)c1sc2nc(-c3cccs3)cc(-c3ccccc3)c2c1N [SW033291 isomer B]
- IC50 lower than parent racemic mixture (recombinant 15-PGDH [5]): 40%
- concentration at which some residual activity is seen ([1]; V9M, printed 'isomer B', context suggests isomer A): 3.2 µM
- concentration giving full activity in reporter ([1]; Vaco-9M (V9M)): 0.1 µM
- melting temperature (recombinant 15-PGDH [2]; Differential Scanning Fluorimetry, shifted from 50.5° C.): 68 °C

Molecule: CCCCC[C@H](O)/C=C/[C@H]1[C@H](O)CC(=O)[C@@H]1C/C=C\CCCC(=O)O [PGE2]
- increase in number of bone marrow derived colonies [4]: lesser increase
